Among the data in patent publication US9365613B2, “Acylated 4-amidino- and -4-guanidinobenzylamines for inhibition of plasma kallikrein” (The Medicines Company (Leipzig) GmbH, priority 2003, dated 2016) are Ki values, retold here.

In one experiment the target is PK (Homo sapiens, UniProt P03952). The conditions noted are these: read-out: Ki PK (literature); cited from earlier work.
The target in another experiment is thrombin (UniProt P00735). The experiment can be described thus: Inhibitory constants for thrombin. The format is biochemical. The conditions noted are these: read-out: Ki Thrombin.
The next experiment deals with T1, human factor XIa (Homo sapiens, UniProt P03951).
T1 construct: purchased Haemochrom Diagnostica GmbH, Essen, Germany
The experiment can be described thus: Inhibitory constants for factor XIa (substrate H-D-Lys(Z)-Pro-Arg-pNA, Chromozym PCa). The format is biochemical. The conditions noted are these: read-out: Ki F XIa. On the procedure:
(§1) The inhibitory effect for the individual enzymes was determined in analogy with a method which has already been described (Stürzebecher et al., J. Med. Chem. 40, 3091-3099, 1997).
(§2) After 3 min, the reaction was terminated by adding 25 μl of acetic acid (50%) and the absorption at […] was determined using a Microplate Reader (Labsystems iEMS Reader MF). The Ki values were determined, in accordance with Dixon (Biochem. J. 55, 170-171, 1953), by means of linear regression and using a computer program. The Ki values are the mean of at least three determinations.
(§3) The inhibition of factor XIa and factor XIIa was determined in an analogous manner. When determining the inhibitory constants for human factor XIa (Haemochrom Diagnostica GmbH, Essen, Germany), H-D-Lys(Z)-Pro-Arg-pNA (Chromozym PCa, Roche Diagnostics GmbH, Mannheim, Germany) was used as the substrate.

In the next experiment the target is T2, human factor XIIa (Homo sapiens, UniProt P00748).
T2 construct: purchased Haemochrom Diagnostica GmbH, Essen, Germany
The experiment can be described thus: Inhibitory constants for factor XIIa (substrate H-D-HHT-Gly-Arg-pNA, Chromozym XII). The format is biochemical. The note with it: read-out: Ki F XIIa. As for the experimental part: as §1, §2, §3
H-D-HHT-Gly-Arg-pNA (Chromozym XII, Roche Diagnostics GmbH, Mannheim, Germany) was used as the substrate for measuring the inhibitory constants of human factor XIIa (Haemochrom Diagnostica GmbH, Essen, Germany).

A further experiment has as its target plasma kallikrein (PK) (Homo sapiens, UniProt P03952). The experiment can be described thus: Determining the inhibitory constants: inhibition of PK (substrate Bzl-Pro-Phe-Arg-pNA). The format is biochemical. The conditions noted are these: Tris buffer pH 8.0, 25° C.; mean of at least three determinations. On the procedure:
as §1, §2

PK, sequence (P03952 391-638 limits assumed): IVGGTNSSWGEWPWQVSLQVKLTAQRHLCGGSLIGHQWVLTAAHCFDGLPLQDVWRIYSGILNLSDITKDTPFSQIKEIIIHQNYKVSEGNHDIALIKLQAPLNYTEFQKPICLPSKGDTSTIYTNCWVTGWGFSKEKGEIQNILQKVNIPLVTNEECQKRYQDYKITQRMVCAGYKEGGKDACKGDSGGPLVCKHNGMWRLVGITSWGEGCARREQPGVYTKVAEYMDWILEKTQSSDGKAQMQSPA
PK, sequence (P03952 20-390 partner limits assumed): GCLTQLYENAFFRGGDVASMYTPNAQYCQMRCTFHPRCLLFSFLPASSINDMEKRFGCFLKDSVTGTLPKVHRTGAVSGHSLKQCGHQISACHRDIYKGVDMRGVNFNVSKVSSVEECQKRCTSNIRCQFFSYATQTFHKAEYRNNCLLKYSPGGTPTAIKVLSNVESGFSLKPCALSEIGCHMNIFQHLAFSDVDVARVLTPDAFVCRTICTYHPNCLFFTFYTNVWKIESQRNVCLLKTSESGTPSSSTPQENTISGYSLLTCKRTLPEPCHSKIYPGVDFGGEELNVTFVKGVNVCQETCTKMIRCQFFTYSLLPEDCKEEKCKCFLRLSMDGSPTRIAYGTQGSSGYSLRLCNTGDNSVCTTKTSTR
plasma kallikrein (PK), sequence (P03952 391-638 limits assumed, species assumed): as the sequence (P03952 391-638 limits assumed) above
plasma kallikrein (PK), sequence (P03952 20-390 partner limits assumed, species assumed): as the sequence (P03952 20-390 partner limits assumed) above
T2 sequence (P00748 373-615 limits assumed, other chains not shown): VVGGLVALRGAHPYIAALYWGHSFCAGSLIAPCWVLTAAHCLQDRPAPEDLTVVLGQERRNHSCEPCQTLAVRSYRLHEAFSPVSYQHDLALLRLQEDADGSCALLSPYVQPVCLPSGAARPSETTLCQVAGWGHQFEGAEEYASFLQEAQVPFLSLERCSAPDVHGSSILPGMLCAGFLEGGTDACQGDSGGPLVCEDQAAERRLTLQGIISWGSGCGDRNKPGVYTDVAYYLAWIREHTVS
T1 sequence (P03951 388-625 limits assumed): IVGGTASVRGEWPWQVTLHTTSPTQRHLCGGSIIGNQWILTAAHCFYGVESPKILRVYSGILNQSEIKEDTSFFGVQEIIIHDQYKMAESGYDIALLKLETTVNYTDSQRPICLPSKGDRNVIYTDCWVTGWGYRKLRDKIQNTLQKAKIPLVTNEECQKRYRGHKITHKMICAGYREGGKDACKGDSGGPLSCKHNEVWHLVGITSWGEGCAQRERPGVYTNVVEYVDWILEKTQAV
T1 sequence (P03951 19-387 partner limits assumed): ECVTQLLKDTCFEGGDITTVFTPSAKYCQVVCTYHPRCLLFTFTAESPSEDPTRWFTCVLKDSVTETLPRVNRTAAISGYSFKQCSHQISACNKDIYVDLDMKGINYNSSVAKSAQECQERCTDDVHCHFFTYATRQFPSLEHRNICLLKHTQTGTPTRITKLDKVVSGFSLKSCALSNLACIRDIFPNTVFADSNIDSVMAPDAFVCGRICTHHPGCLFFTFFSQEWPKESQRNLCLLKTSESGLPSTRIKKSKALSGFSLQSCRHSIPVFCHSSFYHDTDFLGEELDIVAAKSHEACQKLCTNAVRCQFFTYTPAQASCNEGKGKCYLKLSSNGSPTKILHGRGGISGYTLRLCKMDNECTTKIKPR

Consider `CC(=O)N[C@H](Cc1ccccc1)C(=O)N1CCC[C@H]1C(=O)N[C@@H](CCCN=C(N)N)B(O)O` [DuP 714, Ac-D-Phe-Pro-boroarginine], for which the Ki on PK was 0.0016 µM.
For the compound `N=C(N)NCCCC(C=O)NC(=O)C(Cc1ccccc1)NC(=O)C(Cc1ccccc1)NC(=O)OC12CC3CC(CC(C3)C1)C2` [adamantyloxycarbonyl-D-Phe-Phe-arginal], the inhibitory constant (Ki) at PK is 0.012 µM.
With `C[C@@H](OCc1ccccc1)[C@H](NC(=O)[C@@H](CO)NS(=O)(=O)Cc1ccccc1)C(=O)NCc1ccc(C(=N)N)cc1` [Inhibitor 14], the Ki on thrombin worked out at 0.3 µM; on human factor XIa it was 0.33 µM; at human factor XIIa, 23 µM; on plasma kallikrein (PK) it was 0.091 µM.
On to `N=C(N)c1ccc(CNC(=O)[C@H](CCC(=O)NCCCOCCOCCOCCCN)NC(=O)[C@@H](CC2CCCCC2)NS(=O)(=O)Cc2ccccc2)cc1` [Inhibitor 59], for which the inhibition constant Ki is 0.015 µM at thrombin, 0.04 µM at human factor XIa, 0.98 µM on human factor XIIa and 0.015 µM on plasma kallikrein (PK).
On to `N=C(N)c1ccc(CNC(=O)[C@@H]2CCCN2C(=O)[C@@H](CC2CCCCC2)NS(=O)(=O)Cc2cccc(CN)c2)cc1` [Inhibitor 55], for which the Ki on thrombin turned out to be 0.0032 µM; on human factor XIa, 0.17 µM; at human factor XIIa, 0.47 µM; on plasma kallikrein (PK), 0.09 µM.
In the case of `COC(=O)c1ccc(CS(=O)(=O)N[C@H](CO)C(=O)N[C@@H](CO)C(=O)NCc2ccc(C(=N)N)cc2)cc1` [Inhibitor 24], the Ki on thrombin came to 4.2 µM; at human factor XIa, 0.87 µM; at human factor XIIa, 19 µM; at plasma kallikrein (PK), 0.16 µM.
In the case of `CC(C)(C)OC[C@@H](NS(=O)(=O)Cc1ccccc1)C(=O)N[C@@H](CO)CC(=O)NCc1ccc(C(=N)N)cc1` [Inhibitor 42], the inhibition constant Ki was 13 µM on thrombin, 0.74 µM on human factor XIa, > 1000 µM on human factor XIIa and 0.21 µM at plasma kallikrein (PK).
As for `N=C(N)c1ccc(CNC(=O)CNC(=O)[C@@H](CC2CCCCC2)NS(=O)(=O)Cc2ccccc2)cc1` [Inhibitor 63], the Ki amounted to 0.009 µM on thrombin, 25 µM on human factor XIa, 0.7 µM at human factor XIIa and 0.011 µM at plasma kallikrein (PK).
As for `N=C(N)c1ccc(CNC(=O)[C@H](CCCCN)NC(=O)[C@@H](CC2CCCCC2)NS(=O)(=O)Cc2ccccc2)cc1` [Inhibitor 53], the Ki on thrombin is 0.01 µM; on human factor XIa it was 0.15 µM; on human factor XIIa, 0.83 µM; at plasma kallikrein (PK) it was 0.0023 µM.
Take `N=C(N)c1ccc(CNC(=O)C2CCCN2C(=O)C(CO)NS(=O)(=O)Cc2ccccc2)cc1` (stereo not drawn) [Inhibitor 3]: the Ki at thrombin was 0.012 µM; at human factor XIa, 0.1 µM; at human factor XIIa it was 5.1 µM; on plasma kallikrein (PK) it was 0.054 µM.
Regarding `N=C(N)c1ccc(CNC(=O)[C@@H]2CCCN2C(=O)[C@@H](CO)NS(=O)(=O)Cc2ccc(C(=O)O)cc2)cc1` [Inhibitor 61], the Ki at thrombin stood at 0.24 µM; on human factor XIa, 0.014 µM; at human factor XIIa, 29 µM; at plasma kallikrein (PK) it was 0.0091 µM.
`CC(C)(C)OC[C@@H](NS(=O)(=O)Cc1ccccc1)C(=O)N[C@@H](CNC(=O)OCc1ccccc1)C(=O)NCc1ccc(C(=N)N)cc1` [Inhibitor 34]: the inhibition constant Ki on thrombin is 0.37 µM; at human factor XIa it was 0.31 µM; on human factor XIIa, 0.93 µM; at plasma kallikrein (PK), 0.025 µM.
For the compound `CC(C)(C)OC[C@@H](NS(=O)(=O)Cc1ccccc1)C(=O)N[C@@H](CC(=O)O)C(=O)NCc1ccc(C(=N)N)cc1` [Inhibitor 29], the Ki is 6 µM on thrombin, 0.39 µM at human factor XIa, > 1000 µM on human factor XIIa and 0.91 µM on plasma kallikrein (PK).
As to `N=C(N)c1ccc(CNC(=O)[C@H](CCCCN)NC(=O)[C@@H](CO)NS(=O)(=O)Cc2ccccc2)cc1` [Inhibitor 10], the Ki on thrombin came out at 4.3 µM; on human factor XIa, 0.89 µM; at human factor XIIa it was 21 µM; at plasma kallikrein (PK), 0.016 µM.
Regarding `N=C(N)NCc1cccc(C[C@@H](NS(=O)(=O)Cc2ccccc2)C(=O)NCC(=O)NCc2ccc(C(=N)N)cc2)c1` [Inhibitor 79], the Ki amounted to 0.059 µM at thrombin, 0.22 µM at human factor XIa, 0.31 µM on human factor XIIa and 0.075 µM on plasma kallikrein (PK).
For the compound `C[C@H](NC(=O)[C@@H](CO)NS(=O)(=O)Cc1ccc(C(=O)O)cc1)C(=O)NCc1ccc(C(=N)N)cc1` [Inhibitor 22], the Ki on thrombin was determined as 2.3 µM; at human factor XIa it was 0.015 µM; on human factor XIIa, 17 µM; at plasma kallikrein (PK), 0.016 µM.
As for `N=C(N)c1ccc(CNC(=O)[C@@H]2CCCN2C(=O)[C@@H](CC2CCCCC2)NS(=O)(=O)Cc2cccc(CNC(=O)CCCC(=O)O)c2)cc1` [Inhibitor 56], the inhibition constant Ki on thrombin was < 0.001 µM; on human factor XIa it was 0.052 µM; at human factor XIIa, 5.6 µM; at plasma kallikrein (PK), 0.044 µM.
For `CC(C)(C)OC[C@@H](NS(=O)(=O)Cc1ccccc1)C(=O)NCC(=O)NCc1ccc(C(=N)N)cc1` [Inhibitor 26], the Ki worked out at 0.22 µM at thrombin, 1.4 µM on human factor XIa, 2.6 µM at human factor XIIa and 0.34 µM at plasma kallikrein (PK).
On to `N=C(N)c1ccc(CNC(=O)[C@H](CCC(=O)OCc2ccccc2)NC(=O)[C@@H](CCc2ccncc2)NS(=O)(=O)Cc2ccccc2)cc1` [Inhibitor 60], for which the Ki was found to be 0.17 µM on thrombin, 0.031 µM on human factor XIa, 0.094 µM at human factor XIIa and 0.0055 µM on plasma kallikrein (PK).
Take `CC(C)(C)OC[C@@H](NS(=O)(=O)Cc1ccccc1)C(=O)N[C@@H](CCCNC(=N)N)C(=O)NCc1ccc(C(=N)N)cc1` [Inhibitor 37]: the Ki at thrombin is 0.065 µM; on human factor XIa, 0.34 µM; at human factor XIIa it was 2.6 µM; at plasma kallikrein (PK) it was 0.04 µM.
As for `C[C@H](NC(=O)[C@@H](COC(C)(C)C)NS(=O)(=O)Cc1ccccc1)C(=O)NCc1ccc(C(=N)N)cc1` [Inhibitor 27], the Ki is 0.0021 µM at thrombin, 0.03 µM at human factor XIa, 2 µM at human factor XIIa and 0.061 µM on plasma kallikrein (PK).
For `COC(=O)c1ccc(CS(=O)(=O)N[C@H](COC(C)(C)C)C(=O)NCC(=O)NCc2ccc(C(=N)N)cc2)cc1` [Inhibitor 47], in that order: 0.36 µM, 1.6 µM, 4.8 µM and 1.1 µM.
Take `N=C(N)c1ccc(CNC(=O)[C@H](Cc2ccccc2)NC(=O)[C@@H](CO)NS(=O)(=O)Cc2ccccc2)cc1` [Inhibitor 18]: the Ki on thrombin is 1.6 µM; on human factor XIa, 0.92 µM; at human factor XIIa it was 0.97 µM; on plasma kallikrein (PK), 0.021 µM.
On to `CC(C)(C)C(NC(=O)OC12CC3CC(CC(C3)C1)C2)C(=O)NC(Cc1ccccc1)C(=O)NC(CCCNC(=N)N)C(=O)C(F)(F)F` [adamantyloxycarbonyl-D-tert-butylglycine-Phe-Arg-CF3], for which the inhibition constant (Ki) at PK is 0.002 µM.

One may read the Ki as a dissociation constant, usually derived from enzyme kinetics or from competition with a known ligand.
